Assay type in all cases: in vivo
One assay concerns Alternaria solani. The experiment in a line: Field control of Alternaria solani on potato. Conditions: potato Bintje. From the text: This example illustrates the efficacy of a composition according to the invention which comprises pyrimethanil and iprodione as active ingredients for controlling Alternaria solani on the potato. […] The following fungicidal compounds are compared: iprodione at the dose of 750 g/ha, pyrimethanil at the dose of 600 g/ha, […] The products are applied to potato (Bintje variety) which is sensitive to Alternaria solani. […] mancozeb—product tested—mancozeb—product tested—mancozeb—product tested. Scores for the disease (percentage of foliar surface area destroyed) are awarded 15 days after the second application of the experiment products (15 DAB), 8 days and 17 days after the third application of the experimental products (8 DAC and 17 DAC).

Another assay deals with Ascochyta pisi. The experiment in a line: Control of Ascochyta pisi on protein-rich peas. Conditions: pea Baccara, 23 days after second application. From the text: This example illustrates the efficacy of a composition according to the invention which comprises pyrimethanil and iprodione as active ingredients for controlling Ascochyta pisi on protein-rich peas. The following fungicidal compounds are compared: […] pyrimethanil at the dose of 600 g/ha, […] Two successive […] carried out on pea plants (Baccara variety) at the flowering stages and then two weeks after the first application. 23 days after the second application, the percentage of diseased leaves and pods is calculated; the results are presented in table 5.

The test system of the next assay is Alternaria porri. The experiment in a line: Control of Alternaria porri on onion, yield at harvest. Conditions: for Yield (kg/ha): onion bulbs, harvest 32 days after last of 5 applications; for Yield gain (%): onion, compared with the untreated control. As for the experimental part:
This example illustrates the efficacy of a composition according to the invention which comprises pyrimethanil and iprodione as active ingredients for controlling Alternaria porri on onion.
The following fungicidal compounds are compared:
iprodione at the dose of 750 g/ha,
pyrimethanil at the dose of 600 g/ha,
iprodione+pyrimethanil at the doses of 300+150 g/ha to be applied in a mixture volume of 1 000 l/ha.
A total of 5 successive preventive sprayings are carried out on onion plants which were initially 31 days old and at a rhythm of 13 days.
32 days after the last application, harvesting is carried out and the yield is calculated in terms of kg of bulbs/ha and the yield gain expressed by comparing with the untreated control.

Another assay concerns Alternaria dauci. The assay is described as follows: Field control of Alternaria dauci on carrot. Conditions: carrot Nantes. An excerpt: This example illustrates the efficacy of a composition according to the invention which comprises pyrimethanil and iprodione as active ingredients for controlling alternaria dauci on carrot. The following fungicidal compounds are compared: iprodione at the dose of 750 g/ha, pyrimethanil at the dose of 600 g/ha, […] The products are applied to carrot (Nantes variety) which is sensitive to Alternaria dauci. The various products to be studied are sprayed at the rate of 3 applications in total with intervals of 8 days between the 1st and 2nd applications and of 10 days between the 2nd and 3rd application. Scores for the disease (percentage of foliar surface area destroyed) are awarded 7 days after the 1st and 2nd applications and then 3 days and 8 days after the 3rd application.

The next assay deals with Sclerotinia sclerotinium. The experiment in a line: Control of Sclerotinia on lettuce, counting of attacked plants. Conditions: lettuce Manita. As to the method:
This sample illustrates the efficacy of a composition according to the invention which comprises pyrimethanil and iprodione as active ingredients for controlling Sclerotinia sclerotinium on lettuce. The following fungicidal compounds are compared: iprodione at the dose of 750 g/ha, pyrimethanil at the dose of 800 g/ha, […] A total of 5 […] carried out on lettuce plants ([…] variety). An inoculation with Sclerotinia is carried out the next day after the first treatment by spreading contaminated rape plant stems on the soil. 11 countings of the lettuce plants attacked by Schlerotinia are carried out throughout the trial.

The values below come from US20040235874A1, “Fungicidal composition comprising pyrimethanil and iprodione” (priority 2001, published 2004).

As to `CC(C)NC(=O)N1CC(=O)N(c2cc(Cl)cc(Cl)c2)C1=O` [iprodione], the “Score for the disease (percentage of foliar surface area destroyed)” value in the assay on Alternaria solani (750 g/ha, 8 DAC) was found to be 4.38%; in the assay on Alternaria solani (750 g/ha, 15 DAB), 1.75%; in the assay with Alternaria solani (750 g/ha, 17 DAC) it was 10%; in the assay on Alternaria dauci (750 g/ha, 3 DAC) it was 19.4%; in the assay on Alternaria dauci (750 g/ha, 7 DAA), 8.7%; in the assay with Alternaria dauci (750 g/ha, 7 DAB) it was 11.9%. In the assay with Alternaria dauci (750 g/ha, 8 DAC), the “Score for the disease (percentage of foliar surface area destroyed)” value turned out to be 35%. The “Amount of diseased leaves (%)” value worked out at 46% in the assay on Ascochyta pisi (500 g/ha, first column) and 34% with Ascochyta pisi (500 g/ha, second column). Also, the “Yield (kg/ha)” value with Alternaria porri (750 g/ha) was 33 000 kg/ha. For the same compound, in the assay with Alternaria porri (750 g/ha), the “Yield gain (%)” value was determined as 16.8%. Also, the “Counting of the lettuce plants attacked by Sclerotinia” value (shortened to “Counting”) in the assay with Sclerotinia sclerotinium (750 g/ha, counting 1) came out at 1; in the assay with Sclerotinia sclerotinium (750 g/ha, counting 2), 2.5; in the assay with Sclerotinia sclerotinium (750 g/ha, counting 3), 3; with Sclerotinia sclerotinium (750 g/ha, counting 4) it was 4; with Sclerotinia sclerotinium (750 g/ha, counting 5), 4; in the assay on Sclerotinia sclerotinium (750 g/ha, counting 6) it was 4.8. The “Counting” value in the assay with Sclerotinia sclerotinium (750 g/ha, counting 7) stood at 5.5; in the assay with Sclerotinia sclerotinium (750 g/ha, counting 8) it was 5.9; in the assay with Sclerotinia sclerotinium (750 g/ha, counting 9) it was 6.7; in the assay on Sclerotinia sclerotinium (750 g/ha, counting 10), 7.4; in the assay on Sclerotinia sclerotinium (750 g/ha, counting 11), 7.9.
Regarding `Cc1cc(C)nc(Nc2ccccc2)n1` [pyrimethanil], the “Score for the disease (percentage of foliar surface area destroyed)” value in the assay on Alternaria solani (600 g/ha, 8 DAC) is 8.75%; with Alternaria solani (600 g/ha, 15 DAB) it was 3.44%; in the assay on Alternaria solani (600 g/ha, 17 DAC), 13.13%; in the assay on Alternaria dauci (600 g/ha, 3 DAC), 31.2%; in the assay on Alternaria dauci (600 g/ha, 7 DAA), 11.9%; with Alternaria dauci (600 g/ha, 7 DAB), 21.9%. Moreover, the “Score for the disease (percentage of foliar surface area destroyed)” value in the assay with Alternaria dauci (600 g/ha, 8 DAC) was 57.5%. The “Amount of diseased leaves (%)” value in the assay on Ascochyta pisi (600 g/ha, first column) came out at 21%; in the assay on Ascochyta pisi (600 g/ha, second column) it was 16%. The “Yield (kg/ha)” value in the assay with Alternaria porri (600 g/ha) was 31 500 kg/ha. The “Yield gain (%)” value in the assay with Alternaria porri (600 g/ha) was found to be 11.5%. The “Counting” value is 3.5 in the assay with Sclerotinia sclerotinium (800 g/ha, counting 1); 5.5 in the assay on Sclerotinia sclerotinium (800 g/ha, counting 2); 8 in the assay on Sclerotinia sclerotinium (800 g/ha, counting 3); 14.8 with Sclerotinia sclerotinium (800 g/ha, counting 4); 18 in the assay on Sclerotinia sclerotinium (800 g/ha, counting 5); 22.8 in the assay with Sclerotinia sclerotinium (800 g/ha, counting 6). For the same compound, the “Counting” value was found to be 26 in the assay on Sclerotinia sclerotinium (800 g/ha, counting 7); 29.4 in the assay on Sclerotinia sclerotinium (800 g/ha, counting 8); 31.4 with Sclerotinia sclerotinium (800 g/ha, counting 9); 33.9 with Sclerotinia sclerotinium (800 g/ha, counting 10); 35.8 in the assay with Sclerotinia sclerotinium (800 g/ha, counting 11).
